Data on 41 molecules can be found in US20190008848A1, “IDENTIFICATION OF ADDITIONAL ANTI-PERSISTER ACTIVITY AGAINST BORRELIA BURGDORFERI FROM AN FDA DRUG LIBRARY” (THE JOHNS HOPKINS UNIVERSITY, priority 2015, published 2019).

Data set [1] has as its system stationary phase B. burgdorferi. The data set can be described thus: SYBR Green I/PI viability assay (drug library screen, plate reader). The note with it: for viability at 50 µM: Borreliella burgdorferi, 168 h; for activity against stationary phase B. burgdorferi (in words): screen at 50 μM, 7 days; for Residual viable cells (SYBR/PI): Table 3. As for the experimental part: (§1) Borrelia burgdorferi strain B31 (ATCC35210) was received from the […] (Manassas, Va., USA) and was grown in BSK-H medium (HiMedia Laboratories, Mumbai, India) and 6% rabbit serum (Sigma Aldrich, St. Louis, Mo., USA). The culture was filtered and sterilized using a […] and incubated in capped sterile 50 mL conical tubes (BD Biosciences, CA, USA) at 33° C. for 7 days without antibiotics until the culture reached stationary phase.
(§2) The cultures were examined using a Nikon Eclipse E800 microscope with differential interference contrast and epifluorescent illumination. The pictures were captured using a SPOT slider color camera. A SYBR Green I/PI assay was used to assess the viability of the bacterial sample using the ratio of live to dead B. burgdorferi (measured with green and red fluorescence, respectively) as measured by a plate reader.
(§3) Briefly, prediluted drug stock (10 μL) was added to 7 day old stationary phase B. burgdorferi culture (90 μL) to achieve a 50 μM final drug concentration per well. The plates were then incubated at 33° C. for 7 days at which point the SYBR/PI rapid viability assay was performed in a fluorescence plate reader to obtain the green-red fluorescence ratio.

For data set [2] the test system is unchanged. In words: Residual viable B. burgdorferi by epifluorescence microscope counting after drug exposure. The note with it: for viability at 50 µM: Borreliella burgdorferi, 168 h, read-out: Residual viable cells (Microscopy). As for the experimental part: as §1, §2, §3
Where [3] appears, read: read-out: Residual viable cells (SYBR Green/PI), Table 1, drugs 50 μM, 7 day old stationary phase cells treated for 7 days.
Setting [4] is: read-out: Residual viable cells (SYBR/PI), Table 3, drugs 50 μM, 7-day old stationary phase cells treated for 7 days.
Setting [5] is: Table 1, drugs 50 μM, 7 day old stationary phase cells treated for 7 days.
The mark [6] stands for this setting: drugs 50 μM, 7-day old stationary phase cells treated for 7 days.
Setting [7] is: read-out: Residual viable cells (SYBR/PI).

Counter-ions that a name gives are not always drawn. Like-named read-outs stand apart in the source and are kept apart here. Bridge positions count the residues as written; N and C are the ends. Square brackets hold non-standard residues; d marks the D form. Peptide text beside a SMILES is read from it. * marks the point of attachment. Ileψ(thiazoline)Cys = CC[C@H](C)[C@H](N)C1=N[C@H](C(=O)*)CS1; dOrn = NCCC[C@@H](N)C(=O)O

Turning to `CC1(C)S[C@@H]2[C@H](NC(=O)[C@H](N)c3ccc(O)cc3)C(=O)N2[C@H]1C(=O)O` [Amoxicillin], the viability at 50 µM in data set [1] (setting [3]), in data set [1] (setting [4]) and in data set [2] was 76% throughout.

Take `C[C@@H]1CC[C@H]2[C@@H](C)C(=O)O[C@@H]3O[C@@]4(C)CC[C@@H]1[C@]32OO4` [Artemesinin]: the viability at 50 µM turned out to be 49% in data set [1] (setting [3]), 49% in data set [1] (setting [4]) and 45% in data set [2]. Moreover, in data set [1], the “activity against stationary phase B. burgdorferi (in words)” value was “good activity”.

Consider `C[C@H]1[C@H](NC(=O)/C(=N\OC(C)(C)C(=O)O)c2csc(N)n2)C(=O)N1S(=O)(=O)O` [Aztreonam], for which the viability at 50 µM in data set [1] (setting [3]) is 55%; in data set [1] (setting [4]) it was 55%; in data set [2], 50%.

In the case of `CC[C@H](C)[C@H](N)C1=N[C@H](C(=O)N[C@@H](CC(C)C)C(=O)N[C@H](CCC(=O)O)C(=O)N[C@H](C(=O)N[C@H]2CCCCNC(=O)[C@H](CC(N)=O)NC(=O)[C@@H](CC(=O)O)NC(=O)[C@H](Cc3cnc[nH]3)NC(=O)[C@@H](Cc3ccccc3)NC(=O)[C@H]([C@@H](C)CC)NC(=O)[C@@H](CCCN)NC2=O)[C@@H](C)CC)CS1` [Bacitracin, Bacitracin zinc salt] ({Ileψ(thiazoline)Cys}-L[dE]IK[dOrn]I[dF]H[dD]N; lactam 4-C), the viability at 50 µM in data set [1] (setting [3]) is 47%; in data set [1] (setting [4]) it was 47%; in data set [2], 60%.

As to `c1ccc(-c2ccc(C(c3ccccc3)n3ccnc3)cc2)cc1` (stereo not drawn) [Bifonazole], the figures for the viability at 50 µM in data set [1] (setting [3]), in data set [1] (setting [4]) and in data set [2] were 48%, 48% and 50%, respectively. For the same molecule, in data set [1], the “activity against stationary phase B. burgdorferi (in words)” value is “reasonable activity”.

With `CC1(C)S[C@@H]2[C@H](NC(=O)C(C(=O)O)c3ccccc3)C(=O)N2[C@H]1C(=O)O` (stereo partly drawn) [Carbenicillin], the viability at 50 µM was determined as 46% in data set [1] (setting [3]), 46% in data set [1] (setting [4]) and 64% in data set [2].

Turning to `C=CC1=C(C(=O)O)N2C(=O)[C@@H](NC(=O)/C(=N\OCC(=O)O)c3csc(N)n3)[C@H]2SC1` [Cefixime], the viability at 50 µM in data set [1] (setting [3]), in data set [1] (setting [4]) and in data set [2] was 56% in each case.

On to `CO/N=C(\C(=O)N[C@@H]1C(=O)N2C(C(=O)O)=C(COC(N)=O)CS[C@H]12)c1ccco1` [Cefuroxime], for which the viability at 50 µM in data set [1] (setting [3]) is 43%; in data set [2], 49%.

`CC(C)(C)C(=O)C(Oc1ccc(Cl)cc1)n1ccnc1` (stereo not drawn) [Climbazole]: the values for the viability at 50 µM in data set [1] (setting [4]) and in data set [2] were 62% and 71%, respectively. In addition, the “activity against stationary phase B. burgdorferi (in words)” value in data set [1] is listed as “reasonable activity”.

Regarding `CCCCCCCCCC(=O)N[C@@H](Cc1c[nH]c2ccccc12)C(=O)N[C@H](CC(N)=O)C(=O)N[C@@H](CC(=O)O)C(=O)N[C@@H]1C(=O)NCC(=O)N[C@@H](CCCN)C(=O)N[C@@H](CC(=O)O)C(=O)N[C@H](C)C(=O)N[C@@H](CC(=O)O)C(=O)NCC(=O)N[C@H](CO)C(=O)N[C@@H]([C@H](C)CC(=O)O)C(=O)N[C@@H](CC(=O)c2ccccc2N)C(=O)O[C@@H]1C` [Daptomycin], the viability at 50 µM in data set [1] (setting [3]) was determined as 28%; in data set [1] (setting [4]) it was 28%; in data set [2] it was 35%.

With `C[C@H]1c2cccc(O)c2C(=O)C2=C(O)[C@]3(O)C(=O)C(C(N)=O)=C(O)[C@@H](N(C)C)[C@@H]3[C@@H](O)[C@@H]21` [Doxycycline], the viability at 50 µM in data set [1] (setting [3]) worked out at 67%; in data set [1] (setting [4]), 67%; in data set [2], 75%.

Regarding `Nc1nc(=O)[nH]cc1F` [Flucytosine (5-Fluorocytosine), 5-Fluorocytosine], the results for the viability at 50 µM in data set [1] (setting [4]) and in data set [2] were 68% and 66%, respectively.

For the molecule `CN[C@@H]1C[C@@H](c2ccc(Cl)c(Cl)c2)c2ccccc21.Cl` [Indatraline, Indatraline hydrochloride], the “Residual viable cells (SYBR Green/PI)” value in data set [1] (setting [5]) is 51%. Moreover, the “Residual viable cells (SYBR/PI)” value in data set [1] (setting [6]) is listed as 51%. Further, the “activity against stationary phase B. burgdorferi (in words)” value in data set [1] is “high activity”. The “Residual viable cells (Microscopy)” value in data set [2] (setting [5]) is on record as 43%; in data set [2] (Table 3, drugs 50 μM, 7-day old stationary phase cells treated for 7 days), 43%.

In the case of `CN(C)c1ccc2nc3ccc(=[N+](C)C)cc-3sc2c1` [Methylene blue hydrate], in data set [1], the “activity against stationary phase B. burgdorferi (in words)” value was “good activity”. The viability at 50 µM in data set [2] worked out at 40%. Also, the “activity against B. burgdorferi persisters by careful microscopy analysis (in words)” value in data set [2] (coloured drugs verified by microscopy) is “high activity”.

For the molecule `CN1CCCN=C1/C=C/c1cccc(O)c1` [Oxantel], the viability at 50 µM is 44% in data set [1] (setting [3]), 44% in data set [1] (setting [4]) and 63% in data set [2].

In the case of `Clc1ccc(CO/N=C(\Cn2ccnc2)c2ccc(Cl)cc2Cl)c(Cl)c1` [Oxiconazole nitrate], the viability at 50 µM in data set [1] (setting [3]) and in data set [1] (setting [4]) was 62% throughout.

Consider `C[C@H]1COc2c(C3(N)CC3)c(F)cc3c(=O)c(C(=O)O)cn1c23` [Pazufloxacin], for which the viability at 50 µM in data set [1] (setting [4]) came out at 69%.

Consider `Nc1nc2c(ncn2CCC(CO)CO)c(=O)[nH]1` [Penciclovir], for which the viability at 50 µM in data set [1] (setting [3]) was 64%; in data set [1] (setting [4]), 64%; in data set [2], 60%.

For `c1ccc2c(c1)Nc1ccccc1S2` [Phenothiazine], the figures for the viability at 50 µM in data set [1] (read-out: Residual viable cells (SYBR Green/PI)), in data set [1] (setting [7]) and in data set [2] were 54%, 54% and 53%, respectively.

As for `[I-].[K+]` [Potassium iodide], the “Residual viable cells (SYBR/PI)” value in data set [1] (setting [6]) came to 65%.

Take `CCCc1cc(C(N)=S)ccn1` [Protionamide]: in data set [1] (setting [4]), the viability at 50 µM was 63%.

Turning to `COc1ccc(C[C@H](N)C(=O)N[C@H]2[C@@H](O)[C@H](n3cnc4c(N(C)C)ncnc43)O[C@@H]2CO)cc1` [Puromycin], the results for the viability at 50 µM in data set [1] (setting [3]), in data set [1] (setting [4]) and in data set [2] were 65%, 65% and 48%, respectively.

Regarding `CCc1nc(N)nc(N)c1-c1ccc(Cl)cc1` [Pyrimethamine], the viability at 50 µM in data set [1] (setting [3]) amounted to 45%; in data set [1] (setting [4]), 45%; in data set [2], 55%.

Turning to `NC(=O)c1ncn([C@@H]2O[C@H](CO)[C@@H](O)[C@H]2O)n1` [Ribavirin], the viability at 50 µM in data set [1] (setting [3]) and in data set [1] (setting [4]) was 63% each time.

For the molecule `CCC[S+]([O-])c1ccc2[nH]c(NC(=O)OC)nc2c1` (stereo not drawn) [Ricobendazole (Albendazole oxide), Albendazole oxide], the viability at 50 µM in data set [1] (setting [7]) amounted to 57%.

Consider `CO[C@H]1/C=C/O[C@@]2(C)Oc3c(C)c([O-])c4c(O)c(cc(O)c4c3C2=O)NC(=O)/C(C)=C\C=C\[C@H](C)[C@H](O)[C@@H](C)[C@@H](O)[C@@H](C)[C@H](OC(C)=O)[C@@H]1C.[Na+]` [Rifamycin SV], for which the “Residual viable cells (Microscopy)” value in data set [2] is reported as 60%.

As for `CO[C@H]1/C=C/O[C@@]2(C)Oc3c(C)c(O)c4c(O)c(c5c(nc6cc(C)ccn65)c4c3C2=O)NC(=O)/C(C)=C\C=C\[C@H](C)[C@H](O)[C@@H](C)[C@@H](O)[C@@H](C)[C@H](OC(C)=O)[C@@H]1C` [Rifaximin], in data set [1] (setting [4]), the viability at 50 µM was 51%.

On to `CC(N)C12CC3CC(CC(C3)C1)C2` (stereo not drawn) [Rimantadine], for which the viability at 50 µM in data set [1] (setting [4]) amounted to 68%.

Turning to `O=C(Nc1ccccc1)c1ccccc1O` [Salicylanilide], the viability at 50 µM in data set [1] (setting [7]) came out at 63%.

`Nc1ccc(S(=O)(=O)Nc2ccc(Cl)nn2)cc1` [Sulfachlorpyridazine]: the viability at 50 µM in data set [1] (setting [7]) came to 58%.

Consider `O=c1n(Cl)c(=O)n(Cl)c(=O)n1Cl` [Symclosene (Trichloroisocyanuric acid), Trichloroisocyanuric acid], for which, in data set [1] (setting [7]), the viability at 50 µM was 60%.

As for `c1ccc(C2CN3CCSC3=N2)cc1` (stereo not drawn) [Tetramisole], the viability at 50 µM in data set [1] (setting [3]) and in data set [1] (setting [4]) was 48% each time.

Turning to `CC(=O)Nc1ccc(/C=N/NC(N)=S)cc1` [Thiacetazone (Amithiozone), Amithiozone], the viability at 50 µM in data set [1] (setting [4]) was determined as 73%.

For `CS(=O)(=O)c1ccc([C@@H](O)[C@@H](CO)NC(=O)C(Cl)Cl)cc1` [Thiamphenicol], the viability at 50 µM in data set [1] (setting [4]) was 57%.

As for `CCN(CC)CCOc1ccc2c(c1)C(=O)c1cc(OCCN(CC)CC)ccc1-2` [Tilorone, Tilorone dihydrochloride], the viability at 50 µM in data set [1] (setting [3]) and in data set [1] (setting [4]) was 44% in each case. Further, the “activity against stationary phase B. burgdorferi (in words)” value in data set [1] is recorded as “good activity”.

`NC1CCN(c2nc3c(cc2F)c(=O)c(C(=O)O)cn3-c2ccc(F)cc2F)C1` (stereo not drawn) [Tosufloxacin]: the viability at 50 µM in data set [1] (setting [3]) and in data set [1] (setting [4]) was 57% in each case.

Consider `O=c1[nH]c(=O)n([C@H]2C[C@H](O)[C@@H](CO)O2)cc1C(F)(F)F` [Trifluridine], for which the viability at 50 µM in data set [1] (setting [4]) stood at 55%.

With `CC(C)[C@H](N)C(=O)OCCOCn1cnc2c(=O)[nH]c(N)nc21` [Valacyclovir], the viability at 50 µM in data set [1] (setting [4]) was 58%.

As to `C[C@@H](c1ncncc1F)[C@](O)(Cn1cncn1)c1ccc(F)cc1F` [Voriconazole], the viability at 50 µM in data set [1] (setting [4]) is 65%.

Regarding `Nc1ccc([As](=O)(O)O)cc1` [p-Arsanilic acid], the “Residual viable cells (SYBR/PI)” value in data set [1] (setting [6]) was 49%.

Consider Penimepicycline, for which the “Residual viable cells (Microscopy)” value in data set [2] worked out at 60%.
